Test results reported in patent US20230165276A1, “NOVEL USE OF SUBSTITUTED 2H-CHROMENS AND THEIR DERIVATIVES” (DSM IP ASSETS B.V., priority 2018, published 2023).

Key:
[1] = Oxipres antioxidant efficacy value (EV) in poultry meal; conditions: 70° C., 5 bar oxygen, 130 hours, equimolar to BHT, EV relative to BHT (EV=1)
Protocol: (§1) Oxidative stability was assessed using an Oxipres (Mikrolab Aarhus A/S, Hojbjerg, Denmark). The ML OXIPRES® is designed to monitor the oxidation of heterogeneous products. Consumption of oxygen results in a pressure drop which is measured by means of pressure transducers. The samples are heated to accelerate the process and shorten the analysis time (Mikrolab Aarhus 2012).
(§2) Sample weights were 50 g. They were loaded into the Oxipres vessels and placed inside the stainless-steel pressure vessel and sealed. The pressure vessels were purged with pure oxygen and filled to an initial oxygen pressure of 5 bar and maintained at 70° C. during measurement (D. Ying, L. Edin, L. Cheng, L. Sanguansri, M. A. Augustin, LWT-Food Science and Technology 2015, 62, 1105-1111: “Enhanced oxidative stability of extruded product containing polyunsaturated oils.”).
(§3) The oxygen pressure was recorded as function of time. After sample load and temperature rise the pressure in the device is increasing within 10 hours. Thereafter it is decreasing. Consequently, the starting pressure is considered to be the pressure after 10 hours. The analysis ends after 130 hours at 70° C. The oxygen consumption ‘02’ of the tested sample is calculated as follows: […]
(§4) A factor of protection called ‘EV’ (Efficacy Value) was developed to quantify with a relative number (relative to BHT) the antioxidant effect of the tested candidates. EV was calculated as follows:
(§5) EV, being relative to BHT (3,5-di-tert-butyl-4-hydroxy-toluene) (EV=1), makes it possible to compare the antioxidant compounds in a defined feed application.
(§6) Compounds of formulae (1) to (7) were mixed each into the matrix 1, 2 or 3 (pet food, poultry meal, fish meal) in an equimolar ratio compared to BHT. Batches of 200 g feed were produced in order to handle a minimum of 30 mg of antioxidant. First, a 1% pre-dilution of the antioxidant with the feed material was made. Then this pre-dilution was added to the final batch, mixed, sieved (1.25 mm sieve) and mixed using a turbula® mixer. Thereafter 55 g of the final batch were packed into polyethylene bags and stored at 4° C. till time of Oxipres assay. Spare sample were stored at 4° C. An efficacy value 0.7 has been considered as acceptable, an efficacy value the efficacy value of alpha-tocopherol as good, and an efficacy value the efficacy value of BHT as very good.

[2] = Oxipres antioxidant efficacy value (EV) in fish meal; conditions: 70° C., 5 bar oxygen, 130 hours, equimolar to BHT, EV relative to BHT (EV=1)
Protocol: as §1, §2, §3, §4, §5, §6

[3] = Oxipres antioxidant efficacy value (EV) in pet food; conditions: 70° C., 5 bar oxygen, 130 hours, equimolar to BHT, EV relative to BHT (EV=1)
Protocol: as §1, §2
as §3, with “The analysis ends after 130 hours at 70° C.” left out
A factor of protection called ‘EV’ (Efficacy Value) was developed to quantify with a relative number (relative to BHT) the antioxidant effect of the tested candidates. EV was calculated as follows: […]

Solubility in fish oil = assay type: physicochemical
Protocol: (§7) Two different levels of compound of formula (1) (0.5 and 2 mg/g) were used in 5 g of natural fish oil (Product Code: FG30TG) and used in the Oxidative Stability Instrument at 80° C. with the air flow rate of 40 psi. The solubility of different amounts and types of antioxidants used in 051 was checked before and after the application. […] Compound of formula (1) was used in the Oxidative Stability instruments under the same conditions used for fish oil evaluations. Also, the synergistic effect of compound of formula (1) with ascorbyl palmitate (AP) was determined using the OSI values. The polymers generated at the end of the experiment were determined by LC.

[4] = Oil Stability Index (Oxidative Stability Instrument) in FG30TG fish oil
Protocol: Compound of formula (1) was evaluated primarily for its oxidative stability by the Oil Stability Index measurements.
as §7

[5] = Polymers generated at the end of the fish oil stabilization experiment (LC); conditions: 2 mg/g in FG30TG oil, without AP
Protocol: as §7
Polymers generated at the end of the stabilization experiment of fish oil with compound of formula (1) and AP are shown in Table 11.
Polymers are combination of complex compounds generated at the end of the oxidation cascade of unsaturated fatty acids and, they indicate the levels of overall oxidation of the matrix. The generation of such polymers in fish oil containing compound of formula (1) could be reduced considerably when AP was added as a synergistic compound (Table 11).

[6] = Storage stability study of fish oil (PV, p-AV, CD); conditions: 2 mg/g in FG30TG
Protocol: Tables 12, 13 and 14 show the PV (peroxide value), p-AV (p-anisidine value) and CD (conjugated dienoic acid in %) of the fish oil samples stabilized with compound of formula (1). For the storage stability study compound of formula (1) was used in fish oil at only 2 mg/g level. […] MNT had the lowest PV values. There was no considerable variation in p-AV and CD (Tables 13-14) during the storage.

[7] = Oil Stability Index in crude algal oil
Protocol: as §7
This algal oil already contained about 1.6 mg/g of MNT.

Structure (SMILES): Cc1cc(C(C)(C)C)c(O)c(C(C)(C)C)c1 [BHT, 3,5-di-tert-butyl-4-hydroxy-toluene, reference compound]
- EV in poultry meal [1]: 1
- EV in Fish meal [2]: 1

Structure (SMILES): CC1=CC(C)(C)Oc2ccc(O)cc21 [Compound of formula (1), 2,2,4-trimethyl-2H-chromen-6-ol]
- EV in pet food [3]: 0.97
- EV in poultry meal [1]: 1.10
- EV in Fish meal [2]: 0.94
- Solubility in fish oil, 80° C. (Solubility in fish oil; Amount 0.5 mg/g): Soluble
- Solubility in fish oil, Room temp. (Solubility in fish oil; Amount 0.5 mg/g): Soluble
- Solubility in fish oil, 80° C. (Solubility in fish oil; Amount 2.0 mg/g): Soluble
- Solubility in fish oil, Room temp. (Solubility in fish oil; Amount 2.0 mg/g): Soluble
- OSI ([4]; Table 7, 0.5 mg/g in FG30TG fish oil, 80° C., air flow 40 psi): 5.95 h
- OSI ([4]; Table 7, 2 mg/g in FG30TG fish oil, 80° C., air flow 40 psi): 6.73 h
- Protection Factor (%) ([4]; Table 8, 0.5 mg/g in FG30TG fish oil): 25.26%
- Protection Factor (%) ([4]; Table 8, 2 mg/g in FG30TG fish oil): 41.58%
- OSI ([4]; Table 9, 2 mg/g in FG30TG fish oil, without AP): 5.70 h
- Protection Factor (%) ([4]; Table 10, 2 mg/g in FG30TG fish oil, without AP): 23.1%
- Polymers (%) [5]: 34.67%
- CD (conjugated dienoic acid in %) ([6]; 4 days): 0.8%
- PV (peroxide value) ([6]; 4 days): 2
- p-AV (p-anisidine value) ([6]; 4 days): 4.4
- CD (conjugated dienoic acid in %) ([6]; 6 days): 0.8%
- PV (peroxide value) ([6]; 6 days): 2.6
- p-AV (p-anisidine value) ([6]; 6 days): 7.2
- CD (conjugated dienoic acid in %) ([6]; 8 days): 0.9%
- PV (peroxide value) ([6]; 8 days): 3.8
- p-AV (p-anisidine value) ([6]; 8 days): 6.8
- CD (conjugated dienoic acid in %) ([6]; 11 days): 0.9%
- PV (peroxide value) ([6]; 11 days): 6.8
- p-AV (p-anisidine value) ([6]; 11 days): 7.6
- CD (conjugated dienoic acid in %) ([6]; 13 days): 0.8%
- PV (peroxide value) ([6]; 13 days): 9.8
- p-AV (p-anisidine value) ([6]; 13 days): 8.1
- CD (conjugated dienoic acid in %) ([6]; 15 days): 0.8%
- PV (peroxide value) ([6]; 17 days): 12.1
- p-AV (p-anisidine value) ([6]; 17 days): 8.5
- CD (conjugated dienoic acid in %) ([6]; Initial): 0.7%
- PV (peroxide value) ([6]; Initial): 0.9
- p-AV (p-anisidine value) ([6]; Initial): 9.9
- OSI ([7]; 0.5 mg/g added to crude algal oil already containing about 1.6 mg/g of MNT): 16.60 h
- OSI ([7]; 2 mg/g added to crude algal oil already containing about 1.6 mg/g of MNT): 18.55 h

Structure (SMILES): CC1(C)C=Cc2cc(O)ccc2O1 [Compound of formula (2), 2,2-dimethyl-2H-chromen-6-ol]
- EV in poultry meal [1]: 1.11

Structure (SMILES): CC1=CC(C)(C)Oc2c(C)c(C)c(O)c(C)c21 [Compound of formula (3), 2,2,4,5,7,8-hexamethyl-2H-chromen-6-ol]
- EV in Fish meal [2]: 0.89

Structure (SMILES): Cc1c(C)c2c(c(C)c1O)C=CC(C)(C)O2 [Compound of formula (4), 2,2,5,7,8-pentamethyl-2H-chromen-6-ol]
- EV in Fish meal [2]: 1.10

Structure (SMILES): CCOc1ccc2c(c1)C(C)=CC(C)(C)O2 [Compound of formula (5), 6-ethoxy-2,2,4-trimethyl-2H-chromene]
- EV in Fish meal [2]: 0.77

Structure (SMILES): O=c1ccc2cc(O)ccc2o1 [Compound of formula (6), 6-hydroxycoumarin]
- EV in Fish meal [2]: 0.75

Structure (SMILES): Oc1ccc2c(c1)C=CCO2 [Compound of formula (7), 2H-chromen-6-ol]
- EV in Fish meal [2]: 0.72

Structure (SMILES): Cc1c(C)c2c(c(C)c1O)CC[C@@](C)(CCC[C@H](C)CCC[C@H](C)CCCC(C)C)O2 [alpha-tocopherol, reference compound]
- EV in pet food [3]: 0.77
- EV in poultry meal [1]: 0.74
- EV in Fish meal [2]: 0.88
